Test results from ChEMBL document CHEMBL1127099, “Anticonvulsant activity of glycine-site NMDA antagonists. 2. trans 2-carboxy-4-substituted tetrahydroquinolines” (Bioorg Med Chem Lett, 1993).

Columns and labels:
[1] = target: Glutamate NMDA receptor; assay: Tested for the binding affinity at glycine recognition site of the NMDA receptor in rat cortical membranes using radiolabeled [3H]- L-689 560; assay type: cell membranes, Membrane
[2] = tested on: Mus musculus; assay: Tested for the anticonvulsant activity in DBA/2 mice after 30 mins of intraperitoneal administration; assay type: functional; details: ip, 0.5 h
[3] = Ratio of ED50 values administered intracerebroventricular to that of antagonistic potency (Kb); assay type: functional
[4] = species: Rattus norvegicus; assay: Tested for the antagonistic potency for blockade of NMDA-induced depolarizations in rat cortical slices; assay type: functional
[5] = Plasma half-life was tested; assay type: ADME, cell-free
[6] = target: Glutamate NMDA receptor; assay: Tested for the binding affinity at glycine recognition site of the NMDA receptor in rat cortical membranes using radiolabeled [3H]-L-689,560 560; assay type: cell membranes, Membrane
[7] = tested on: Mus musculus; assay: Tested for the anticonvulsant activity in DBA/2 mice after 15 mins of intracerebroventricular administration at pH 8.0; assay type: functional
[8] = Partition coefficient (logP); assay type: physicochemical; details: octanol/water

Row | Structure (SMILES) | IC50 [1] [nM] | ED50 [2] [mg/kg] | Ratio [3] | Kb [4] [nM] | other results
1 | NC(Cc1ccc(CC(=O)N[C@H]2C[C@H](C(=O)O)Nc3cc(Cl)cc(Cl)c32)cc1)C(=O)O (stereo partly drawn) | 32 | 29 | 0.6 | 840 | 
2 | NCc1ccc(CC(=O)N[C@H]2C[C@H](C(=O)O)Nc3cc(Cl)cc(Cl)c32)cc1 | 19 | 39 | 15 | 240 | half-life [5]: 1.83 h
3 | O=C(Nc1ccccc1)N[C@H]1C[C@H](C(=O)O)Nc2cc(Cl)cc(Cl)c21 |  | > 100 |  | 130 | 
4 | O=C(C[C@H]1C[C@H](C(=O)O)Nc2cc(Cl)cc(Cl)c21)Nc1ccccc1 |  |  |  |  | IC50 [6]: 19 nM
5 | C/C(=C\C(N)C(=O)O)CP(=O)(O)O (stereo not drawn) [CGP-37849] |  | 0.8 | 0.1 | 200 | ED50 [7]: 0.02 nM
6 | COC(=O)[C@H]1C[C@H](NC(=O)Cc2ccc(CN)cc2)c2c(Cl)cc(Cl)cc2N1.Cl |  | 31.5 |  |  | 
7 | O=C(Cc1ccccc1)N[C@H]1C[C@H](C(=O)O)Nc2cc(Cl)cc(Cl)c21 |  | 46 | 9 | 530 | IC50 [6]: 14 nM; logP [8]: 0.55
8 | O=C(O)c1cc(=O)c2ccccc2[nH]1 [TRANSTORINE] |  | > 250 |  | 154000 | 
9 | O=C(O)c1cc(O)c2c(Cl)cc(Cl)cc2n1 |  | > 250 |  |  | 
10 | C[C@]12N[C@H](Cc3ccccc31)c1ccccc12 [DIZOCILPINE] |  | 0.2 | 23 | 80 | 
11 | O=C(O)C[C@H]1C[C@H](C(=O)O)Nc2cc(Cl)cc(Cl)c21 | 74 |  |  |  | 
12 | O=[N+]([O-])c1cc([N+](=O)[O-])c2nc(O)c(O)nc2c1 |  | > 10 | >16 | 1230 | 
13 | CN(C(=O)Nc1ccccc1)[C@H]1C[C@H](C(=O)O)Nc2cc(Cl)cc(Cl)c21 | 9 |  |  |  | 
